Read-outs that look alike come from different tables or passages of the source.
Legend:
p110δ/p85 = p110δ/p85 (Homo sapiens, UniProt O00329); assay: Inhibition of isolated enzyme p110δ/p85 (lipid kinase, [γ-33P]ATP, TLC); assay type: biochemical; details: recombinant enzyme, 100 μM ATP, nine concentrations, average of two experiments
Experimental: (§1) Compounds were evaluated for their ability to inhibit Class I PI 3-kinase enzymes p110δ/p85, p110α/p85, and p110β/p85. Reaction mixtures comprising 0.1 μg of a recombinant enzyme, 10 μg of L-α-phosphatidylinositol, and 2× Lipid Kinase Buffer (40 mM Tris-HCl, pH 7.4, 200 mM NaCl, 1 mM EDTA), which contains either DMSO only as a control or the test compound in DMSO (the final DMSO concentration is 1%), were activated by the addition of an ATP mix (5 mM MgCl2, 100 μM ATP, and 0.1 μL [γ^33P]ATP). Reactions were incubated at room temperature for 1 hr, and then stopped by the addition of 1M HCl. The lipids were then extracted using a two step procedure. Firstly, 200 μL of chloroform/methanol (1:1) was added, the biphasic reactions mixed and centrifuged briefly, and the inorganic phase was removed and discarded. Following this, 80 μL of methanol:HCl (1:1) was added and the same procedure followed. The organic phase (70 μL) was then transferred to a clean 1.6 mL tube and the reactions were dried using a Speedvac, with no heating, for 30 min. The reactions were spotted onto TLC plates (Merck Ltd) and developed for 1 hr in propanol-1:2 M acetic acid (13:7). The TLC plates were then dried at room temperature and quantified using a phosphorimager (StormImager, Amersham). Nine compound concentrations were used for each test compound to determine its IC50 value. Each experiment was performed twice and the average IC50 value is used herein.

NZOV9 = assay: Cellular growth inhibition, NZOV9 (3H-thymidine incorporation); assay type: cell-based, human; details: five days incubation, 3H-thymidine over the last 6 hrs, read-out: Cell IC50 NZOV9
Experimental: (§2) The compounds were evaluated against two early passage human cell lines NZB5 and NZOV9 (Marshall et al., Oncol. Res. 2004, 14, 297). The cells were grown in ITS medium (α-modified minimal essential medium supplemented insulin, transferrin, selenite, and 5% fetal bovine serum) and grown on 96-well tissue culture plates under an atmosphere of 5% O2, 5% CO2, and 90% N2. Individual wells contained 500-1,000 cells (depending on the growth rate) in a volume of 150 μL. Compounds were added at 10-fold concentration steps to a maximum of 20 μM and plates were incubated for five days, with ^3H-thymidine being added over the last 6 hrs. Cells were harvested and incorporated radioactivity measured. Duplicate samples were analyzed for each compound dose with multiple control samples.

p110β/p85 = p110β/p85 (Homo sapiens, UniProt P42338); assay: Inhibition of isolated enzyme p110β/p85 (lipid kinase, [γ-33P]ATP, TLC); assay type: biochemical; details: recombinant enzyme, 100 μM ATP, nine concentrations, average of two experiments
Experimental: as §1

NZB5 = assay: Cellular growth inhibition, NZB5 (3H-thymidine incorporation); assay type: cell-based, human; details: five days incubation, 3H-thymidine over the last 6 hrs, read-out: Cell IC50 NZB5
Experimental: as §2

p110α/p85 = p110α/p85 (Homo sapiens, UniProt P42336); assay: Inhibition of isolated enzyme p110α/p85 (lipid kinase, [γ-33P]ATP, TLC); assay type: biochemical; details: recombinant enzyme, 100 μM ATP, nine concentrations, average of two experiments
Experimental: as §1

PI3K = details: reversible inhibitors, literature; cited from earlier work
human tumor xenografts = details: mouse, in vivo; cited from earlier work

p110β/p85, sequence (P42338 whole entry, species assumed): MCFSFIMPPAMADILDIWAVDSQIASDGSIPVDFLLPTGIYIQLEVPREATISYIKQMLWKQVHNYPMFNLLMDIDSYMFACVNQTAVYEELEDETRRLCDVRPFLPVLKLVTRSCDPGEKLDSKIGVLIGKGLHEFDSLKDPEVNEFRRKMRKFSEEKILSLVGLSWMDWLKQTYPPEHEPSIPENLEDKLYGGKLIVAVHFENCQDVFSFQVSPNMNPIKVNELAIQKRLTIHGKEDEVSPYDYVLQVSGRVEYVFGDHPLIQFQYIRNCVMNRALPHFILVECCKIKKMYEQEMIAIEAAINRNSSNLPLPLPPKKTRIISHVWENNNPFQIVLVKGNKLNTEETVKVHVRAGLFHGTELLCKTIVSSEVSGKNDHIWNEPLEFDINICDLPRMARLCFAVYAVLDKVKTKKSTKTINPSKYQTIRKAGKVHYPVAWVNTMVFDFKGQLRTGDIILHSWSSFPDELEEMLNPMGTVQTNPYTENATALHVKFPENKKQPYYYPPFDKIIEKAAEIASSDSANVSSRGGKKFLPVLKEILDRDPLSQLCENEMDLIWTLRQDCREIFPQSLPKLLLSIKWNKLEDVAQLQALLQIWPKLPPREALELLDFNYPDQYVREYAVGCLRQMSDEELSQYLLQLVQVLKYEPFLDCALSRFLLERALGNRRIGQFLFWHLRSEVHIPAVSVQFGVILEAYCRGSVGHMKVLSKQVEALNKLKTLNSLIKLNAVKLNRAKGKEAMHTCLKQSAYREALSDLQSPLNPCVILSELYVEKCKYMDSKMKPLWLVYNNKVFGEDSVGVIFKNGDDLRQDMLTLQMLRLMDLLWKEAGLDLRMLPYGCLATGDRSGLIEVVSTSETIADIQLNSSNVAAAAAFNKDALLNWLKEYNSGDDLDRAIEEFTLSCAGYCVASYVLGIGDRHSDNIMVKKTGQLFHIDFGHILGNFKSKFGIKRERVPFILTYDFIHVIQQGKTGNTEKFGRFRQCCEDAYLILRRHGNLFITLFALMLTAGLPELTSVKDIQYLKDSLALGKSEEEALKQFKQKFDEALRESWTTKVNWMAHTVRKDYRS
p110β/p85, sequence (P27986 whole entry partner, species assumed): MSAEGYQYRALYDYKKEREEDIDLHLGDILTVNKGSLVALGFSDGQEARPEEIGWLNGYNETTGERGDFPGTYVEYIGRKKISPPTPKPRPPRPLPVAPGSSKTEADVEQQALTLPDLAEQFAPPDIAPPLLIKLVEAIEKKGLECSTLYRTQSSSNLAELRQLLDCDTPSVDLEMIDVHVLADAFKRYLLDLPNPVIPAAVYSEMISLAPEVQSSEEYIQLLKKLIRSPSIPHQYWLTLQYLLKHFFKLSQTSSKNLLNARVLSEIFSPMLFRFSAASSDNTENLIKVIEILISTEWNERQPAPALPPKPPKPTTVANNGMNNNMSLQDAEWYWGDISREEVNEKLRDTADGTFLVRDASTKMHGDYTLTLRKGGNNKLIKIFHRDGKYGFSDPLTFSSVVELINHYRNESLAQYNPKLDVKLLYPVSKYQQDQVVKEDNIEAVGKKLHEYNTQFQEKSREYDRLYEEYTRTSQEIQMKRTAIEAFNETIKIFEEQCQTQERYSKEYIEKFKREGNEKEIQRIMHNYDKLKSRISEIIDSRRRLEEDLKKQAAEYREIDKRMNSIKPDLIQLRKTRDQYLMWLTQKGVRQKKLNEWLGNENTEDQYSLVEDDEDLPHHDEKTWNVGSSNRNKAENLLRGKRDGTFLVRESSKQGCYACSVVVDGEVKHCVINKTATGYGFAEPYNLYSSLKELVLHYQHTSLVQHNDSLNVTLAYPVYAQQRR
p110δ/p85, sequence (O00329 whole entry, species assumed): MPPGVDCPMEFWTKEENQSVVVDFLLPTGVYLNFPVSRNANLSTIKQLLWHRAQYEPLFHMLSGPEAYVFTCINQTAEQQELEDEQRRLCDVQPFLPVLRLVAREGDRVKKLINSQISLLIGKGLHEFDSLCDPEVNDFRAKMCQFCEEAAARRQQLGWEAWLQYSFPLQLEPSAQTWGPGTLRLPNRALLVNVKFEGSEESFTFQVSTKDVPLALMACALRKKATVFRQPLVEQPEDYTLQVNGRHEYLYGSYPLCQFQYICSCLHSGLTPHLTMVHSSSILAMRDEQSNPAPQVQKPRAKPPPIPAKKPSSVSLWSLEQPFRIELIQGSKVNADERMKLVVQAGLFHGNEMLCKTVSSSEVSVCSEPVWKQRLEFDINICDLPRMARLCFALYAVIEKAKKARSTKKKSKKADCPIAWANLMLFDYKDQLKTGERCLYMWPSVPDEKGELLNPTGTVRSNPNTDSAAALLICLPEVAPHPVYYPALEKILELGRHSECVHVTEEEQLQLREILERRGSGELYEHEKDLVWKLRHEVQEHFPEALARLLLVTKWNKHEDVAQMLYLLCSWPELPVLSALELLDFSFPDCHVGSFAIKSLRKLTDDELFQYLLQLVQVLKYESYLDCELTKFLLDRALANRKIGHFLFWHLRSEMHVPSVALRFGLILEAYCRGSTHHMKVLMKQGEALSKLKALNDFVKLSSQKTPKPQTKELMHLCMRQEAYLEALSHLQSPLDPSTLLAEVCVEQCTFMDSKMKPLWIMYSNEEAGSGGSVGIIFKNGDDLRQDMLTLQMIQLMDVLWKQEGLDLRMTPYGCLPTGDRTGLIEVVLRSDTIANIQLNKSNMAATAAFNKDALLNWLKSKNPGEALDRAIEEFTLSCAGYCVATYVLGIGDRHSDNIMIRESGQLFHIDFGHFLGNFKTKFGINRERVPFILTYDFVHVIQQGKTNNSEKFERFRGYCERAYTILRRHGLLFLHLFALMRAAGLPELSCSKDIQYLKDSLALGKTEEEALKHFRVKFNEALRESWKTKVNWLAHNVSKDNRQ
p110δ/p85, sequence (P27986 whole entry partner, species assumed): as the sequence (P27986 whole entry partner, species assumed) above
p110α/p85, sequence (P42336 whole entry): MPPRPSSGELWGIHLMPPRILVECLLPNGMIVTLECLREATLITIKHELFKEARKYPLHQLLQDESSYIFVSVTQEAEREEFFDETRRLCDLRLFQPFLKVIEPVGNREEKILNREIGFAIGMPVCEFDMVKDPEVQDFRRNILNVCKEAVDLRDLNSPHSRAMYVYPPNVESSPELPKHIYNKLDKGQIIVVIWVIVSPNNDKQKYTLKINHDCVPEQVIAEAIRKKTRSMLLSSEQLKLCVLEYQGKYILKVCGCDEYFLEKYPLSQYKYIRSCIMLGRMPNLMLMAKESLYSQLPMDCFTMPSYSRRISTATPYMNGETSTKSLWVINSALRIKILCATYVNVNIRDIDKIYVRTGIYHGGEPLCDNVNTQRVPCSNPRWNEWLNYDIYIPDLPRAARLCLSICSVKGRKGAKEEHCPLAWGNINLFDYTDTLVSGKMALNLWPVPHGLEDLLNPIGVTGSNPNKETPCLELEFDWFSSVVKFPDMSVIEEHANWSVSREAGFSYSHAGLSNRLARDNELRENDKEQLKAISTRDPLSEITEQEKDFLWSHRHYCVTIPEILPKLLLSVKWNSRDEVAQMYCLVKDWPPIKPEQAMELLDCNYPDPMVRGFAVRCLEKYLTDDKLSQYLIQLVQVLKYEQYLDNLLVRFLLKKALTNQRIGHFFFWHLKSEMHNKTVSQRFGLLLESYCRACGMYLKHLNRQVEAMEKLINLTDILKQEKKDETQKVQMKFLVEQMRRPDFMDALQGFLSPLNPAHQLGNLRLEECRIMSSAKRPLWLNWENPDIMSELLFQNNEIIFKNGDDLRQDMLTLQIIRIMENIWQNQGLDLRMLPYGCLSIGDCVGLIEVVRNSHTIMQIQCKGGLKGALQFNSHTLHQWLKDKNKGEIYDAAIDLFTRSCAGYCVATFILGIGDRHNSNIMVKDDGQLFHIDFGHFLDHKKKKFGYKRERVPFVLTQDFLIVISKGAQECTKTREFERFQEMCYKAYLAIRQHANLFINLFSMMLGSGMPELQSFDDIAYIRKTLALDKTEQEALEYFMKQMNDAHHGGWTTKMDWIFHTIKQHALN
p110α/p85, sequence (P27986 whole entry partner): as the sequence (P27986 whole entry partner, species assumed) above

For C=CS(=O)(=O)N1CCN(c2nc(N3CCOCC3)nc(-n3c(C(F)F)nc4c(OC)cccc43)n2)CC1 [Example 3, 2-(difluoromethyl)-4-methoxy-1-{4-(4-morpholinyl)-6-[4-(vinylsulfonyl)-1-piperazinyl]-1,3,5-triazin-2-yl}-1H-benzimidazole], which melting point is on record?
Its melting point is 242 to 244 °C.

What about the IC50 (p110δ/p85) of the same compound?
Its IC50 is < 100 nM.

What about the IC50 (NZOV9; Homo sapiens, NZOV9) of the same compound?
The IC50 was < 100 nM.

And the IC50 (p110β/p85)?
Its IC50 is < 100 nM.

And the IC50 (NZB5; Homo sapiens, NZB5)?
Its IC50 is 100 to 1000 nM.

And the IC50 (p110α/p85)?
The IC50 was < 100 nM.

Which melting point does the source give for COc1cccc2c1nc(C(F)F)n2-c1nc(N2CCOCC2)cc(N(C)C2CCN(S(C)(=O)=O)CC2)n1 [Example 6, 2-[2-(difluoromethyl)-4-methoxy-1H-benzimidazol-1-yl]-N-methyl-N-[1-(methylsulfonyl)-4-piperidinyl]-6-(4-morpholinyl)-4-pyrimidinamine] here?
Its melting point is 191 to 193 °C.

And the IC50 (p110δ/p85)?
Its IC50 is < 100 nM.

What about the IC50 (NZOV9; Homo sapiens, NZOV9) of the same compound?
Its IC50 is < 100 nM.

What about the IC50 (p110β/p85) of the same compound?
The IC50 was < 100 nM.

What about the IC50 (NZB5; Homo sapiens, NZB5) of the same compound?
Its IC50 is 100 to 1000 nM.

And the IC50 (p110α/p85)?
Its IC50 is < 100 nM.

With COc1cccc2c1nc(C(F)F)n2-c1nc(Nc2ccc(N(C)S(C)(=O)=O)nc2)nc(N2CCOCC2)n1 [Example 101, N-(5-{[4-[2-(difluoromethyl)-4-methoxy-1H-benzimidazol-1-yl]-6-(4-morpholinyl)-1,3,5-triazin-2-yl]amino}-2-pyridinyl)-N-methylmethanesulfonamide] as the compound, how does the melting point read?
The melting point was 250 to 253 °C.

What about the IC50 (p110δ/p85) of the same compound?
Its IC50 is < 100 nM.

What about the IC50 (NZOV9; Homo sapiens, NZOV9) of the same compound?
The IC50 was < 100 nM.

What about the IC50 (p110β/p85) of the same compound?
Its IC50 is 100 to 1000 nM.

And the IC50 (NZB5; Homo sapiens, NZB5)?
Its IC50 is < 100 nM.

What about the IC50 (p110α/p85) of the same compound?
The IC50 was < 100 nM.

Which PI3K isoform selectivity (PI3K) does the source give for Cc1ccccc1-n1c(Cn2cnc3c(N)ncnc32)nc2cccc(C)c2c1=O [IC87114] here?
Its PI3K isoform selectivity is “δ-selective”.

Which tolerability (human tumor xenografts) does the source give for O=c1cc(N2CCOCC2)oc2c(-c3ccccc3)cccc12 [LY294002] here?
Its tolerability is “well-tolerated”.

For Oc1cccc(-c2nc(N3CCOCC3)c3oc4ncccc4c3n2)c1 [PI103], which PI3K isoform selectivity (PI3K) is on record?
Its PI3K isoform selectivity is “slightly α-selective”.

Which PI3K isoform selectivity (PI3K) does the source give for Cc1cc(C(C)Nc2ccccc2)c2nc(N3CCOCC3)cc(=O)n2c1 (stereo not shown) [TGX221] here?
The PI3K isoform selectivity was “β-selective”.

With FC(F)c1nc2ccccc2n1-c1nc(N2CCOCC2)nc(N2CCOCC2)n1 [ZSTK474] as the compound, how does the PI3K isoform selectivity (PI3K) read?
The PI3K isoform selectivity was “non-selective”.

For “N-{(3S)-1-[4-[2-(difluoromethyl)-4-methoxy-1H-benzimidazol-1-yl]-6-(4-morpholinyl)-1,3,5-triazin-2-yl]piperidinyl}-N-[3-(dimethylamino)propyl]methane-sulfonamide [Example 63]”, which IC50 (p110δ/p85) is on record?
Its IC50 is 100 to 1000 nM.

What about the IC50 (NZOV9) of the same compound?
Its IC50 is 100 to 1000 nM.

And the IC50 (p110β/p85)?
Its IC50 is > 1000 nM.

What about the IC50 (NZB5) of the same compound?
The IC50 was 100 to 1000 nM.

What about the IC50 (p110α/p85) of the same compound?
Its IC50 is 100 to 1000 nM.

Reference: patent US8772287B2, “Pyrimidinyl and 1,3,5-triazinyl benzimidazole sulfonamides and their use in cancer therapy” (VetDC, Inc., priority 2009, dated 2014)
